The structures appear in SMILES notation. Starred links: 1 amine or outer side, 2 acyl side, 3 side chain; linkers in the order of their positions; H or OH if unused. Positions of bridges follow the written chain, without caps; N, C: chain ends. Non-standard residues stand in square brackets, D forms with d. Residues, ends and D or L forms follow the SMILES beside them. Groups on a side chain read outwards from the residue. *: point of attachment. C20 diacid = O=C(O)CCCCCCCCCCCCCCCCCCC(=O)*; C18 diacid = O=C(O)CCCCCCCCCCCCCCCCC(=O)*; γGlu = O=C(O)[C@H](CCC(=O)[*:2])N[*:1]; Stearoyl = CCCCCCCCCCCCCCCCCC(=O)*; Palmitoyl = CCCCCCCCCCCCCCCC(=O)*; AEEA = NCCOCCOCC(=O)O

A short description of one data set: in vivo. More on the design: species or system Sprague-Dawley rats. To be noted: male, Sprague-Dawley, rat, iv, 0.033 mg/kg. The gist of the method:
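Male Sprague-Dawley rats, non-fasted (n=3), given peptide in saline as 1-h IV or SC infusion at 0.033 mg/kg, or SC bolus at 0.3 mg/kg; jugular blood to 48 h into K2EDTA plus protease inhibitors. Plasma extracted by precipitation or WCX solid-phase extraction, quantified by UPLC-MS/MS against standards in matching rat plasma.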
The Vd is a proportionality between amount in the body and measured concentration, not a real space. By clearance is commonly meant a measure of how efficiently the substance is removed, as volume per time. The low end stands for inefficient removal, the high end for efficient removal. What is called half-life is the time in which the quantity being followed falls by half. Consider `CC[C@H](C)[C@H](NC(=O)[C@@H]1CCCN1C(=O)CNC(=O)[C@H](Cc1ccccc1)NC(=O)[C@H](CC(N)=O)NC(=O)[C@H](CC(N)=O)NC(=O)[C@H](CO)NC(=O)[C@H](CO)NC(=O)[C@H](CCCCN)NC(=O)[C@H](Cc1c[nH]cn1)NC(=O)[C@H](CCCCNC(=O)CC[C@H](NC(=O)CCCCCCCCCCCCCCCCC(=O)O)C(=O)O)NC(=O)[C@H](CCC(=O)O)NC(=O)[C@H](CC(N)=O)NC(=O)[C@H](C)NC(=O)[C@H](CC(C)C)NC(=O)[C@H](CCCNC(=N)N)NC(=O)[C@H](CCC(N)=O)NC(=O)[C@@H](NC(=O)[C@H](C)NC(=O)[C@@H]1CSSC[C@H](NC(=O)[C@@H](N)CO)C(=O)N[C@@H](CC(N)=O)C(=O)N[C@@H]([C@@H](C)O)C(=O)N[C@@H](CO)C(=O)N[C@@H]([C@@H](C)O)C(=O)N1)[C@@H](C)O)C(=O)N[C@@H](CC(C)C)C(=O)N1CCC[C@H]1C(=O)N1CCC[C@H]1C(=O)N[C@H](C(=O)N[C@@H](CCCCN)C(=O)N[C@H](C(=O)NCC(=O)N[C@@H](CO)C(=O)N[C@@H](CCC(=O)O)C(=O)N[C@H](C(=O)N[C@@H](Cc1ccc(O)cc1)C(N)=O)[C@@H](C)O)C(C)C)[C@@H](C)O` [Compound A76] (H-SCNTSTCATQRLANEK([γGlu-C18 diacid])HKSSNNFGPILPPTKVGSETY-NH2; disulfide 2-7; N-terminus assumed), for which the volume of distribution (Vd) amounted to 0.176 L/kg, the clearance was 0.105 mL/min/kg and the half-life was 21.3 h.

Regarding `CC[C@H](C)[C@H](NC(=O)[C@@H]1CCCN1C(=O)CNC(=O)[C@H](Cc1ccccc1)NC(=O)[C@H](CC(N)=O)NC(=O)[C@H](CC(N)=O)NC(=O)[C@H](CO)NC(=O)[C@H](CO)NC(=O)[C@H](CCCCN)NC(=O)[C@H](Cc1c[nH]cn1)NC(=O)[C@H](CCCCNC(=O)CCCCCCCCCCCCCCCCCCC(=O)O)NC(=O)[C@H](CCC(=O)O)NC(=O)[C@H](CC(N)=O)NC(=O)[C@H](C)NC(=O)[C@H](CC(C)C)NC(=O)[C@H](CCCNC(=N)N)NC(=O)[C@H](CCC(N)=O)NC(=O)[C@@H](NC(=O)[C@H](C)NC(=O)[C@@H]1CSSC[C@H](NC(=O)[C@@H](N)CO)C(=O)N[C@@H](CC(N)=O)C(=O)N[C@@H]([C@@H](C)O)C(=O)N[C@@H](CO)C(=O)N[C@@H]([C@@H](C)O)C(=O)N1)[C@@H](C)O)C(=O)N[C@@H](CC(C)C)C(=O)N1CCC[C@H]1C(=O)N1CCC[C@H]1C(=O)N[C@H](C(=O)N[C@@H](CCCCN)C(=O)N[C@H](C(=O)NCC(=O)N[C@@H](CO)C(=O)N[C@@H](CCC(=O)O)C(=O)N[C@H](C(=O)N[C@@H](Cc1ccc(O)cc1)C(N)=O)[C@@H](C)O)C(C)C)[C@@H](C)O` [Compound A75] (H-SCNTSTCATQRLANEK(C20 diacid)HKSSNNFGPILPPTKVGSETY-NH2; disulfide 2-7; N-terminus assumed), the Vd came out at 0.121 L/kg, the clearance was determined as 0.0781 mL/min/kg and the half-life is 24.1 h.

Still in this data set, the particulars now being: rat, iv, 0.033 mg/kg.
As to `CCCCCCCCCCCCCCCCCC(=O)N[C@@H](CCC(=O)N[C@@H](CCC(=O)NCCCC[C@@H](NC(=O)[C@H](CCC(=O)O)NC(=O)[C@H](CC(N)=O)NC(=O)[C@H](C)NC(=O)[C@H](CC(C)C)NC(=O)[C@H](CCCNC(=N)N)NC(=O)[C@H](CCC(N)=O)NC(=O)[C@@H](NC(=O)[C@H](C)NC(=O)[C@@H]1CSSC[C@H](NC(=O)[C@@H](N)CO)C(=O)N[C@@H](CC(N)=O)C(=O)N[C@@H]([C@@H](C)O)C(=O)N[C@@H](CO)C(=O)N[C@@H]([C@@H](C)O)C(=O)N1)[C@@H](C)O)C(=O)N[C@@H](Cc1c[nH]cn1)C(=O)N[C@@H](CCCCN)C(=O)N[C@@H](CO)C(=O)N[C@@H](CO)C(=O)N[C@@H](CC(N)=O)C(=O)N[C@@H](CC(N)=O)C(=O)N[C@@H](Cc1ccccc1)C(=O)NCC(=O)N1CCC[C@H]1C(=O)N[C@H](C(=O)N[C@@H](CC(C)C)C(=O)N1CCC[C@H]1C(=O)N1CCC[C@H]1C(=O)N[C@H](C(=O)N[C@@H](CCCCN)C(=O)N[C@H](C(=O)NCC(=O)N[C@@H](CO)C(=O)N[C@@H](CCC(=O)O)C(=O)N[C@H](C(=O)N[C@@H](Cc1ccc(O)cc1)C(N)=O)[C@@H](C)O)C(C)C)[C@@H](C)O)[C@@H](C)CC)C(=O)O)C(=O)O` [Compound A56] (H-SCNTSTCATQRLANE[dK]([γGlu-γGlu-Stearoyl])HKSSNNFGPILPPTKVGSETY-NH2; disulfide 2-7), the Vd turned out to be 0.469 L/kg, the clearance was 1.34 mL/min/kg and the half-life was 4.29 h.

`CCCCCCCCCCCCCCCC(=O)N[C@@H](CCC(=O)N[C@@H](CCC(=O)NCCCC[C@@H](NC(=O)[C@H](CCC(=O)O)NC(=O)[C@H](CCC(N)=O)NC(=O)[C@H](C)NC(=O)[C@H](CC(C)C)NC(=O)[C@H](CCCNC(=N)N)NC(=O)[C@H](CCC(N)=O)NC(=O)[C@@H](NC(=O)[C@H](C)NC(=O)[C@@H]1CSSC[C@H](NC(=O)[C@@H](N)CO)C(=O)N[C@@H](CC(N)=O)C(=O)N[C@@H]([C@@H](C)O)C(=O)N[C@@H](CO)C(=O)N[C@@H]([C@@H](C)O)C(=O)N1)[C@@H](C)O)C(=O)N[C@@H](Cc1c[nH]cn1)C(=O)N[C@@H](CCCCN)C(=O)N[C@@H](CO)C(=O)N[C@@H](CO)C(=O)N[C@@H](CC(N)=O)C(=O)N[C@@H](CC(N)=O)C(=O)N[C@@H](Cc1ccccc1)C(=O)NCC(=O)N1CCC[C@H]1C(=O)N[C@H](C(=O)N[C@@H](CC(C)C)C(=O)N1CCC[C@H]1C(=O)N1CCC[C@H]1C(=O)N[C@H](C(=O)N[C@@H](CCCCN)C(=O)N[C@H](C(=O)NCC(=O)N[C@@H](CO)C(=O)N[C@@H](CCC(=O)O)C(=O)N[C@H](C(=O)N[C@@H](Cc1ccc(O)cc1)C(N)=O)[C@@H](C)O)C(C)C)[C@@H](C)O)[C@@H](C)CC)C(=O)O)C(=O)O` [Compound A28] (H-SCNTSTCATQRLAQE[dK]([γGlu-γGlu-Palmitoyl])HKSSNNFGPILPPTKVGSETY-NH2; disulfide 2-7): the Vd worked out at 0.17 L/kg, the clearance worked out at 0.485 mL/min/kg and the half-life was 5.41 h.

The molecule `CC[C@H](C)[C@H](NC(=O)[C@@H]1CCCN1C(=O)CNC(=O)[C@H](Cc1ccccc1)NC(=O)[C@H](CC(N)=O)NC(=O)[C@H](CC(N)=O)NC(=O)[C@H](CO)NC(=O)[C@H](CO)NC(=O)[C@H](CCCCN)NC(=O)[C@H](CCC(N)=O)NC(=O)[C@H](CC(C)C)NC(=O)[C@H](Cc1ccccc1)NC(=O)[C@H](CC(N)=O)NC(=O)[C@H](C)NC(=O)[C@H](CC(C)C)NC(=O)[C@H](CCCNC(=N)N)NC(=O)[C@H](CO)NC(=O)[C@@H](NC(=O)[C@H](C)NC(=O)[C@@H]1CSSC[C@H](NC(=O)[C@@H](N)CCCCNC(=O)CC[C@H](NC(=O)CCCCCCCCCCCCCCCCC(=O)O)C(=O)O)C(=O)N[C@@H](CC(N)=O)C(=O)N[C@@H]([C@@H](C)O)C(=O)N[C@@H](CO)C(=O)N[C@@H]([C@@H](C)O)C(=O)N1)[C@@H](C)O)C(=O)N[C@@H](CC(C)C)C(=O)N1CCC[C@H]1C(=O)N1CCC[C@H]1C(=O)N[C@H](C(=O)N[C@@H](CCCCN)C(=O)N[C@H](C(=O)NCC(=O)N[C@@H](CO)C(=O)N[C@@H](CCC(=O)O)C(=O)N[C@H](C(=O)N[C@@H](Cc1ccc(O)cc1)C(N)=O)[C@@H](C)O)C(C)C)[C@@H](C)O` [Compound A109] (H-K([γGlu-C18 diacid])CNTSTCATSRLANFLQKSSNNFGPILPPTKVGSETY-NH2; disulfide 2-7; N-terminus assumed) gave a Vd of 0.154 L/kg, a clearance of 0.15 mL/min/kg and a half-life of 16 h.

Consider `CCCCCCCCCCCCCCCC(=O)N[C@@H](CCC(=O)N[C@@H](CCC(=O)N[C@@H](CCC(=O)N[C@@H](CCC(=O)N[C@@H](CCC(=O)NCCCC[C@H](NC(=O)[C@H](CCC(=O)O)NC(=O)[C@H](CC(N)=O)NC(=O)[C@H](C)NC(=O)[C@H](CC(C)C)NC(=O)[C@H](CCCNC(=N)N)NC(=O)[C@H](CCC(N)=O)NC(=O)[C@@H](NC(=O)[C@H](C)NC(=O)[C@@H]1CSSC[C@H](NC(=O)[C@@H](N)CO)C(=O)N[C@@H](CC(N)=O)C(=O)N[C@@H]([C@@H](C)O)C(=O)N[C@@H](CO)C(=O)N[C@@H]([C@@H](C)O)C(=O)N1)[C@@H](C)O)C(=O)N[C@@H](Cc1c[nH]cn1)C(=O)N[C@@H](CCCCN)C(=O)N[C@@H](CO)C(=O)N[C@@H](CO)C(=O)N[C@@H](CC(N)=O)C(=O)N[C@@H](CC(N)=O)C(=O)N[C@@H](Cc1ccccc1)C(=O)NCC(=O)N1CCC[C@H]1C(=O)N[C@H](C(=O)N[C@@H](CC(C)C)C(=O)N1CCC[C@H]1C(=O)N1CCC[C@H]1C(=O)N[C@H](C(=O)N[C@@H](CCCCN)C(=O)N[C@H](C(=O)NCC(=O)N[C@@H](CO)C(=O)N[C@@H](CCC(=O)O)C(=O)N[C@H](C(=O)N[C@@H](Cc1ccc(O)cc1)C(N)=O)[C@@H](C)O)C(C)C)[C@@H](C)O)[C@@H](C)CC)C(=O)O)C(=O)O)C(=O)O)C(=O)O)C(=O)O` [Compound A14] (H-SCNTSTCATQRLANEK([γGlu-γGlu-γGlu-γGlu-γGlu-Palmitoyl])HKSSNNFGPILPPTKVGSETY-NH2; disulfide 2-7), for which the distribution volume (Vd) came out at 0.163 L/kg, the clearance turned out to be 0.183 mL/min/kg and the half-life was 11.3 h.

For `CCCCCCCCCCCCCCCC(=O)N[C@@H](CCC(=O)NCCOCCOCC(=O)NCCOCCOCC(=O)NCCCC[C@@H](NC(=O)[C@H](CCC(=O)O)NC(=O)[C@H](CC(N)=O)NC(=O)[C@H](C)NC(=O)[C@H](CC(C)C)NC(=O)[C@H](CCCNC(=N)N)NC(=O)[C@H](CCC(N)=O)NC(=O)[C@@H](NC(=O)[C@H](C)NC(=O)[C@@H]1CSSC[C@H](NC(=O)[C@@H](N)CO)C(=O)N[C@@H](CC(N)=O)C(=O)N[C@@H]([C@@H](C)O)C(=O)N[C@@H](CO)C(=O)N[C@@H]([C@@H](C)O)C(=O)N1)[C@@H](C)O)C(=O)N[C@@H](Cc1c[nH]cn1)C(=O)N[C@@H](CCCCN)C(=O)N[C@@H](CO)C(=O)N[C@@H](CO)C(=O)N[C@@H](CC(N)=O)C(=O)N[C@@H](CC(N)=O)C(=O)N[C@@H](Cc1ccccc1)C(=O)NCC(=O)N1CCC[C@H]1C(=O)N[C@H](C(=O)N[C@@H](CC(C)C)C(=O)N1CCC[C@H]1C(=O)N1CCC[C@H]1C(=O)N[C@H](C(=O)N[C@@H](CCCCN)C(=O)N[C@H](C(=O)NCC(=O)N[C@@H](CO)C(=O)N[C@@H](CCC(=O)O)C(=O)N[C@H](C(=O)N[C@@H](Cc1ccc(O)cc1)C(N)=O)[C@@H](C)O)C(C)C)[C@@H](C)O)[C@@H](C)CC)C(=O)O` [Compound A12] (H-SCNTSTCATQRLANE[dK]([AEEA-AEEA-γGlu-Palmitoyl])HKSSNNFGPILPPTKVGSETY-NH2; disulfide 2-7; N-terminus assumed), the volume of distribution (Vd) is 0.252 L/kg, the clearance was 1.55 mL/min/kg and the half-life is 2.47 h.
